According to patent US20260325542A1, “CANCER TARGETING COMPLEX, AND COMPOSITION COMPRISING SAME FOR PREVENTING OR TREATING CANCER” (EWHA UNIVERSITY - INDUSTRY COLLABORATION FOUNDATION, priority 2023, published 2026):
Values belong to the compound of their own block, whether it stands above or below them.

What was measured:
[1] = biological target: T1, BSA (bovine serum albumin) (Bos taurus, UniProt P02769); experiment: In vitro binding of ECMal-PROTAC to albumin (thiol-maleimide reaction), RP-HPLC; settings: ARV-771 140 μM, BSA 200 μM; mixed for more than 60 minutes
T1 construct: free Cys34 thiol reacts with maleimide
T1 sequence (P02769 25-607): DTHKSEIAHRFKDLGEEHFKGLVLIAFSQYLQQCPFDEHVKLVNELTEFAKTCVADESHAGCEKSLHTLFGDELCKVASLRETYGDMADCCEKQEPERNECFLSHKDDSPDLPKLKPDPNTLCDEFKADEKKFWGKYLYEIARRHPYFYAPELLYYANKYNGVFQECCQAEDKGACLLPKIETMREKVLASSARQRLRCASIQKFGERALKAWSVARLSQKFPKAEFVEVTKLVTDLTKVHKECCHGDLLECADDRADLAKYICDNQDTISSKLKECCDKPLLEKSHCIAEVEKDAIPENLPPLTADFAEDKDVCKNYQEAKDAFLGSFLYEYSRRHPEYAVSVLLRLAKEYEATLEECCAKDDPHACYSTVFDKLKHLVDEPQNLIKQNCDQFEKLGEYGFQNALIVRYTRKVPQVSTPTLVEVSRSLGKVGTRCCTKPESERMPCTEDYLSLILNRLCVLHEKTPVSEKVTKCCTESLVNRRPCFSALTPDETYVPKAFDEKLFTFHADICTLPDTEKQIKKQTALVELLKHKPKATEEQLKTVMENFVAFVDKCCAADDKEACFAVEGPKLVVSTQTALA
Experimental: The binding rate of ECMal-PROTAC from example 1 and albumin was confirmed through RP-HPLC. Specifically, a BSA solution (200 μM) diluted with PBS was co-incubated by mixing it with an ECMal-PROTAC aqueous solution (140 μM) of example 1 at a 1:1 volume ratio. The culture was collected at incubation times of 0 minutes, 5 minutes, 30 minutes, and 60 minutes. It was quenched with mercaptoethanol, and HPLC spectra for each sample were acquired through concentration gradient of the eluent (ACN/H2O, 20/80 to 80/20 (v/v), 30 minutes).
To verify the albumin binding ability of the complex for cancer targeting (ECMal-PROTAC) of example 1, the mixture of BSA and the complex for cancer targeting (ECMal-PROTAC) was analyzed by LC-MS spectrum, and compared with the LC-MS spectrum of free BSA.
FIG. 4 is the HPLC spectrum of a mixture of BSA and the complex for cancer targeting (ECMal-PROTAC). According to this, it can be seen that BSA and the complex for cancer targeting (ECMal-PROTAC) rapidly bind through a thiol-maleimide click chemical reaction. To confirm the albumin binding ability of the complex for cancer targeting (ECMal-PROTAC) of example 1, bovine serum albumin (BSA), which has a structure similar to human serum albumin (HSA), was used for analysis.
At this time, the HPLC spectra were also analyzed for a co-incubation of ARV-771 (140 μM) and BSA solution (200 μM) mixed at a 1:1 volume ratio as a comparative example, and for the ECMal-PROTAC solution and BSA solution alone without any treatment of example 1.
From the HPLC results for the BSA and complex for cancer targeting (ECMal-PROTAC) mixture in Experimental Example 1 and the thiol-blocked BSA and complex for cancer targeting (ECMal-PROTAC) mixture in Experimental Example 2, the reduction in the HPLC peak area associated with the complex for cancer targeting (ECMal-PROTAC) was quantified.

BRD4 = biological target: T2, BRD4 (Mus musculus, UniProt Q9ESU6); experiment: Western blot, BRD4 degradation in 4T1 cells; assay type: cell-based; settings: 24 hours
T2 construct: Western blot after PROTAC (ARV-771 release, VHL recruiting)
Experimental: (§1) Accordingly, Western blot analysis was performed to confirm the anticancer ability by evaluating the presence or absence of degradation of BRD4 and other related proteins (e.g., c-Myc and Bcl-2) when cancer cells were treated with the complex for cancer targeting (ECMal-PROTAC) of example 1. The complex for cancer targeting (ECMal-PROTAC) of example 1 and ARV-771 were prepared as samples.
(§2) First, 1×10^5 4T1 cells were dispensed into each well of a 6-well culture plate and cultured for 24 hours at 37° C. and 5% carbon dioxide atmosphere. The cell culture medium was supplemented with various concentrations of ARV-771 (0 to 10 μM) or the complex for cancer targeting (ECMal-PROTAC) of example 1 (0 to 10 μM), and cultured at 37° C. for 24 hours. After the culture was completed, the cells were washed 3 times with PBS, and lysed with a lysis buffer containing 1% […]. Cell debris from the recovered lysate was removed by centrifugation at 12,000 rpm for 25 minutes. After recovering the supernatant, the protein amount was measured using a BCA kit. The supernatant was loaded onto a 10% sodium dodecyl sulfate-polyacrylamide gel. Electrophoresis (SDS-PAGE) was performed, followed by blotting onto a polyvinylidene difluoride (PVDF) membrane. After blotting, the PVDF membrane was treated with 5% BSA-containing tris buffered saline containing 0.1% Tween 20 (TBS-T) for 2 hours to suppress the non-specific binding of IgG (immunoglobulin G). It was immediately exposed to a rabbit anti-mouse primary antibody (1,000:1). After treating at 4° C. for 24 hours, the PVDF membrane was washed 3 times with TBS-T and further incubated with an HRP-conjugated mouse anti-rabbit IgG antibody at room temperature for 1 hour. The immunoreactive bands on the PVDF membrane were analyzed through an ECL (enhanced chemiluminescence) system.

4T1 cells = experiment: CCK-8 assay, toxicity on cancer cells; assay type: cell-based, mouse; settings: CCK-8, 48 hours
Experimental: The toxicity of ARV-771 and ECMal-PROTAC on cancer cells was analyzed by the CCK-8 (cell counting kit-8) assay. 4T1 cells were dispensed into a 96-well culture plate at 3×10^3 cells per well. They were cultured for 24 hours at 37° C. and 5% carbon dioxide atmosphere. The cells were treated with different concentrations of ARV-771 (0.01 to 100 μM), the complex for cancer targeting (ECMal-PROTAC) of example 1 (0.01 to 100 μM), and the complex for cancer targeting (Mal-PROTAC) of example 2 (0.01 to 100 μM) separately, and cultured for 48 hours. After exposing each well to 10% CCK-8-containing culture media for 30 minutes, the viability of 4T1 cells treated with ARV-771 or 4T1 cells treated with ECMal-PROTAC or Mal-PROTAC was analyzed with a microplate reader. The change in cell viability according to the concentration of ARV-771 or ECMal-PROTAC or Mal-PROTAC was calculated using GraphPad Prism 8 software (GraphPad Software, San Diego, CA, USA) by fitting the IC50 (haf-maximal inhibitory concentration) value.

4T1 tumor = experiment: In vivo anticancer efficacy, tumor size in 4T1 cancer animal model; design: species or system mouse; settings: 10 mg/kg, tail vein, once every 3 days for 15 days
Experimental: 5-week-old female Balb/c and Balb/c nu/nu mice were purchased from NaraBio, Inc (Seoul, Republic of Korea). The mice underwent a 2-week acclimatization period before the example. The mice were raised under free-feeding conditions in a breeding room maintained at a temperature of 22±2° C. and humidity of 40-60% during the example. The light and dark cycle was regulated at 12-hour intervals. All examples were conducted in compliance with the relevant laws and institutional guidelines of the KIST Institutional Animal Care and Use Committee (IACUC; Approval No.: 2021-143).
Cancer animal models were prepared by inoculating 1×10^6 4T1 cells into the left thigh of the mice, and raising them until the tumor volume reached 50-80 mm^3.
For the preparation of the control group, the comparison group, and the example group, mice were randomly divided into groups of 5.
(§3) The control group was administered saline (10 mg/kg) once every 3 days for 15 days through the tail vein (total 4 administrations). The comparison group was administered ARV-771 (10 mg/kg) once every 3 days for 15 days through the tail vein (total 4 administrations). The example group was administered ECMal-PROTAC 10 mg/kg (wquiv. to ARV-771) of example 1 once every 3 days for 15 days through the tail vein (total 4 administrations).
(§4) Tumor size and body weight were measured every two days for the control group, the comparison group, and the example group.

[2] = Body weight and systemic side effects; assay type: in vivo, mouse; settings: 10 mg/kg, i.v., once every 3 days for 15 days
Experimental: as §3, §4

[3] = system: organ tissue and cancer tissue; experiment: H&E histology of major organs and cancer tissue; assay type: in vivo, mouse; settings: excised after 15 days
Experimental: as §3
The control group, the comparison group, and the example group were euthanized after 15 days, and major organs (heart, liver, lung, spleen, kidney) and cancer tissue were excised.
Furthermore, to analyze cancer cell apoptosis, TUNEL (terminal deoxynucleotidyl transferase dUTP nick end labeling) analysis was performed on cancer tissue excised from the control group, the comparison group, and the example group. Next, histological analysis was performed by H&E (hematoxylin & eosin) staining of the major organ tissues and cancer tissue of each excised group.
According to FIG. 29, major organ tissue and cancer tissue were excised from the control group, the comparison group, and the example group after 15 days. The excised organ tissue and cancer tissue were stained with H&E (hematoxylin & eosin). The H&E stained tissue was observed using a BX51 optical microscope (Olympus, Tokyo, Japan) and a TCS SP8 confocal laser microscope.

liver tissue = experiment: TUNEL analysis of liver tissue; assay type: in vivo, mouse; settings: administered alone (comparison group)
BRD4 and c-Myc = experiment: Immunofluorescence of excised cancer tissue (DAPI, anti-BRD4, anti-c-Myc); assay type: in vivo, mouse; settings: FIG. 33
Experimental: as §3
FIG. 33 is an image taken with a confocal laser scanning microscope after staining cancer tissue excised from the control group (Control, Saline), the comparison group (ARV-771, intravenous injection), and the example group (ECMal-PROTAC, intravenous injection) with DAPI, anti-BRD4, and anti-c-Myc.

c-Myc = experiment: Western blot, c-Myc level in 4T1 cells; assay type: cell-based, mouse; settings: 0 to 10 μM, 24 hours
Experimental: as §1
as §2, with “After blotting, the PVDF membrane was treated with 5% BSA-containing tris buffered saline containing 0.1% Tween 20 (TBS-T) for 2 hours to suppress the non-specific binding of IgG (immunoglobulin G). It was immediately exposed to a rabbit anti-mouse primary antibody (1,000:1). After treating at 4° C. for 24 hours, the PVDF membrane was washed 3 times with TBS-T and further incubated with an HRP-conjugated mouse anti-rabbit IgG antibody at room temperature for 1 hour.” left out

Bcl-2 = experiment: Western blot, Bcl-2 level in 4T1 cells; assay type: cell-based, mouse; settings: 0 to 10 μM, 24 hours
Experimental: as §1
as §2, with “After blotting, the PVDF membrane was treated with 5% BSA-containing tris buffered saline containing 0.1% Tween 20 (TBS-T) for 2 hours to suppress the non-specific binding of IgG (immunoglobulin G). It was immediately exposed to a rabbit anti-mouse primary antibody (1,000:1). After treating at 4° C. for 24 hours, the PVDF membrane was washed 3 times with TBS-T and further incubated with an HRP-conjugated mouse anti-rabbit IgG antibody at room temperature for 1 hour.” left out

[4] = Particle size by DLS before and after binding to albumin; assay type: physicochemical; settings: BSA 200 μM and ECMal-PROTAC 140 μM in PBS, 1:1, 30 minutes
Experimental: A BSA solution (200 μM) diluted with PBS was co-incubated by mixing it with an ECMal-PROTAC aqueous solution (140 μM) of example 1 at a 1:1 volume ratio.

interaction with BSA [1]: did not form an interaction
DC50 (BRD4; Western blot, read-out: DC50 (half-maximal degradation concentration), BRD4): 3.38 µM
Compound: Cc1ncsc1-c1ccc([C@H](C)NC(=O)[C@@H]2C[C@@H](O)CN2C(=O)[C@@H](NC(=O)COCCCOCCNC(=O)C[C@@H]2N=C(c3ccc(Cl)cc3)c3c(sc(C)c3C)-n3c(C)nnc32)C(C)(C)C)cc1 [ARV-771, reference compound]
IC50 (4T1 cells; Mus musculus, 4T1, FIGS. 15A and 15B, read-out: IC50 against cancer cells): 6.38 µM
cancer size vs control (saline) (4T1 tumor): no significant difference
increase of cancer size from Day 0 (4T1 tumor): 14.8 times
systemic side effects [2]: did not show serious systemic side effects
weight loss [2]: no significant weight loss was observed
damage in cancer tissue (H&E) [3]: did not observe serious damage
damage in organ tissue (H&E) ([3]; liver, lung, spleen, kidney, heart): did not observe serious damage
effect on normal tissue and cancer tissue (liver tissue): affect both normal tissue and cancer tissue
BRD4 degradation in cancer tissue (BRD4 and c-Myc): insufficient to induce apoptosis in cancer tissue

degradation of overexpressed BRD4 protein (BRD4; 0 to 10 μM): induce BRD4 deficiency
Compound: Cc1ncsc1-c1ccc([C@H](C)NC(=O)[C@@H]2C[C@@H](OC(=O)CNC(=O)CCOCCOCCNC(=O)CCN3C(=O)C=CC3=O)CN2C(=O)[C@@H](NC(=O)COCCCOCCNC(=O)C[C@@H]2N=C(c3ccc(Cl)cc3)c3c(sc(C)c3C)-n3c(C)nnc32)C(C)(C)C)cc1 [Mal-PROTAC]
c-Myc level (c-Myc): reduced expression
Bcl-2 level (Bcl-2): reduced expression
IC50 compared to native ARV-771 (4T1 cells): slight increase in IC50 compared to native ARV-771

Compound: BSA: bovine serum albumin; 98%
average particle size [4]: 5.43±1.42 nm
